Experimental data from PubChem BioAssay AID330 (DTP/NCI, 2004).
“And” between values parts separate entries of the source, which are not always exact repeats. Identical values can stand only once. Toxic doses and inconclusive results are not listed.

Tested on: P388 leukemia ip, CD2F1 mice, survival T/C
Experiment: NCI In Vivo Anticancer Drug Screen. Data for tumor model P388 Leukemia (intraperitoneal) in CD2F1 (CDF1) mice
Conditions: endpoint: median survival time, higher = longer survival
In short: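 Mice carrying the transplanted tumor received test compound or vehicle. Survival was recorded in each group, and the value is the treated-group measurement divided by that of the vehicle-treated control group.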

[1] = dose: 50.0 mg/kg/injection, schedule: Q01DX009 (ip), vehicle: saline
[2] = dose: 100.0 mg/kg/injection, schedule: Q01DX009 (ip), vehicle: saline
[3] = dose: 200.0 mg/kg/injection, schedule: Q01DX009 (ip), vehicle: saline
[4] = dose: 12.5 mg/kg/injection, schedule: Q01DX009 (ip), vehicle: saline with Tween-80
[5] = dose: 25.0 mg/kg/injection, schedule: Q01DX009 (ip), vehicle: saline with Tween-80
[6] = dose: 50.0 mg/kg/injection, schedule: Q01DX009 (ip), vehicle: saline with Tween-80
[7] = dose: 200.0 mg/kg/injection, schedule: Q01DX009 (ip), vehicle: saline with Tween-80
[8] = dose: 100.0 mg/kg/injection, schedule: Q01DX009 (ip), vehicle: saline with Tween-80
[9] = dose: 50.0 mg/kg/injection, schedule: Q01DX005 (ip), vehicle: Klucel (hydroxypropylcellulose) (HPC)

SMILES: NS(=O)(=O)c1cccnc1Nc1ccc(Cl)c(Cl)c1
- T/C [1]: 86 % of control
- T/C [2]: 93 % of control
- T/C [3]: 101 % of control

SMILES: CCCCCCCCSc1nc(Nc2cc(C(C)(C)C)c(O)c(C(C)(C)C)c2)nc(SCCCCCCCC)n1
- T/C [4]: 105 % of control
- T/C [5]: 104 % of control
- T/C [6]: 99 % of control and 92 % of control
- T/C [7]: 100 % of control

SMILES: O=C(OC1CC2CCC1C2)c1cc([N+](=O)[O-])cc([N+](=O)[O-])c1 (centres undefined)
- T/C [6]: 107 % of control
- T/C [8]: 100 % of control
- T/C (dose: 100.0 mg/kg/injection, schedule: Q04DX002 (ip), vehicle: saline with Tween-80): 108 % of control
- T/C [7]: 90 % of control
- T/C (dose: 200.0 mg/kg/injection, schedule: Q04DX002 (ip), vehicle: saline with Tween-80): 105 % of control
- T/C (dose: 400.0 mg/kg/injection, schedule: Q04DX002 (ip), vehicle: saline with Tween-80): 100 % of control

SMILES: CC1=CC(=O)C(=O)C2=C1OC1(C2)C(C)CCC2C3(C)CCC(O)C(C)(C)C3CCC21C (centres undefined)
- T/C (dose: 25.0 mg/kg/injection, schedule: Q01DX005 (ip), vehicle: distilled water + Tween-80): 95 % of control
- T/C (dose: 25.0 mg/kg/injection, schedule: Q01DX005 (ip), vehicle: saline with Tween-80): 95 % of control
- T/C (dose: 50.0 mg/kg/injection, schedule: Q01DX005 (ip), vehicle: distilled water + Tween-80): 115 % of control
- T/C (dose: 50.0 mg/kg/injection, schedule: Q01DX005 (ip), vehicle: saline with Tween-80): 111 % of control
- T/C (dose: 100.0 mg/kg/injection, schedule: Q01DX005 (ip), vehicle: saline with Tween-80): 109 % of control

SMILES: CSc1nc(C)nc2sc(CO)nc12
- T/C (dose: 100.0 mg/kg/injection, schedule: Q04DX002 (ip), vehicle: suspension in saline): 97 % of control
- T/C (dose: 200.0 mg/kg/injection, schedule: Q04DX002 (ip), vehicle: suspension in saline): 97 % of control
- T/C (dose: 400.0 mg/kg/injection, schedule: Q04DX002 (ip), vehicle: suspension in saline): 96 % of control

SMILES: C[C@]12CC[C@H]3[C@@H](CCC4=CC(=O)CC[C@@H]43)[C@@H]1CC[C@@H]2OC(=O)N(CCCl)N=O
- T/C (dose: 12.5 mg/kg/injection, schedule: Q01DX009 (ip), vehicle: other): 123 % of control
- T/C (dose: 15.0 mg/kg/injection, schedule: Q01DX009 (ip), vehicle: saline): 96 % of control
- T/C (dose: 15.0 mg/kg/injection, schedule: Q04DX003 (ip), vehicle: saline): 100 % of control and 107 % of control
- T/C (dose: 25.0 mg/kg/injection, schedule: Q01DX005 (ip), vehicle: other): 104 % of control
- T/C (dose: 25.0 mg/kg/injection, schedule: Q01DX009 (ip), vehicle: other): 118 % of control
- T/C (dose: 30.0 mg/kg/injection, schedule: Q01DX009 (ip), vehicle: saline): 86 % of control
- T/C (dose: 30.0 mg/kg/injection, schedule: Q04DX003 (ip), vehicle: saline): 101 % of control and 106 % of control and 112 % of control
- T/C (dose: 50.0 mg/kg/injection, schedule: Q01DX005 (ip), vehicle: other): 96 % of control
- T/C (dose: 60.0 mg/kg/injection, schedule: Q01DX009 (ip), vehicle: saline): 91 % of control
- T/C (dose: 60.0 mg/kg/injection, schedule: Q04DX003 (ip), vehicle: saline): 98 % of control and 101 % of control and 120 % of control
- T/C (dose: 120.0 mg/kg/injection, schedule: Q01DX009 (ip), vehicle: saline with Tween-80): 86 % of control
- T/C (dose: 120.0 mg/kg/injection, schedule: Q01DX009 (ip), vehicle: saline): 92 % of control
- T/C (dose: 120.0 mg/kg/injection, schedule: Q04DX003 (ip), vehicle: saline): 102 % of control and 106 % of control

SMILES: COC(=O)C1=C(\N2CCOCC2)CCCCC/C=C\1C(=O)OC
- T/C [5]: 99 % of control and 106 % of control
- T/C [6]: 100 % of control and 103 % of control
- T/C [8]: 103 % of control and 107 % of control
- T/C [7]: 88 % of control and 95 % of control

SMILES: CCn1cc(C(=O)O)c(=O)c2cc(Cl)c(-n3cccc3)cc21
- T/C (dose: 60.0 mg/kg/injection, schedule: Q01DX005 (ip), vehicle: saline with Tween-80): 95 % of control
- T/C (dose: 120.0 mg/kg/injection, schedule: Q01DX005 (ip), vehicle: saline with Tween-80): 99 % of control
- T/C (dose: 240.0 mg/kg/injection, schedule: Q01DX005 (ip), vehicle: saline with Tween-80): 94 % of control

SMILES: CC(=O)SCC[n+]1cc2ccccc2c2ccccc21
- T/C (dose: 3.12 mg/kg/injection, schedule: Q01DX005 (ip), vehicle: Klucel (hydroxypropylcellulose) (HPC)): 95 % of control
- T/C (dose: 6.25 mg/kg/injection, schedule: Q01DX005 (ip), vehicle: Klucel (hydroxypropylcellulose) (HPC)): 99 % of control
- T/C (dose: 12.5 mg/kg/injection, schedule: Q01DX005 (ip), vehicle: Klucel (hydroxypropylcellulose) (HPC)): 105 % of control and 108 % of control
- T/C (dose: 25.0 mg/kg/injection, schedule: Q01DX005 (ip), vehicle: Klucel (hydroxypropylcellulose) (HPC)): 100 % of control
- T/C [9]: 115 % of control and 118 % of control

SMILES: CC1CN=C(c2ccc(NC(=O)Nc3ccc(C4=NCC(C)N4)cc3)cc2)N1 (centres undefined)
- T/C (dose: 0.4 mg/kg/injection, schedule: Q01DX005 (ip), vehicle: saline with Tween-80): 106 % of control
- T/C (dose: 0.78 mg/kg/injection, schedule: Q01DX005 (ip), vehicle: saline with Tween-80): 104 % of control
- T/C (dose: 1.56 mg/kg/injection, schedule: Q01DX005 (ip), vehicle: saline with Tween-80): 117 % of control and 118 % of control
- T/C (dose: 3.13 mg/kg/injection, schedule: Q01DX005 (ip), vehicle: saline with Tween-80): 117 % of control
- T/C (dose: 6.25 mg/kg/injection, schedule: Q01DX005 (ip), vehicle: saline with Tween-80): 110 % of control

SMILES: COC(=O)/C=C\C=C(\CBr)C(=O)OC
- T/C (dose: 6.25 mg/kg/injection, schedule: Q01DX009 (ip), vehicle: saline with Tween-80): 91 % of control
- T/C (dose: 6.25 mg/kg/injection, schedule: Q04DX003 (ip), vehicle: saline): 110 % of control
- T/C [4]: 95 % of control
- T/C (dose: 12.5 mg/kg/injection, schedule: Q04DX003 (ip), vehicle: saline): 110 % of control
- T/C [5]: 91 % of control
- T/C (dose: 25.0 mg/kg/injection, schedule: Q04DX003 (ip), vehicle: saline): 110 % of control

SMILES: Cc1ccc(S(=O)(=O)Sc2nnnn2-c2ccccc2)cc1
- T/C (dose: 50.0 mg/kg/injection, schedule: Q01DX009 (ip), vehicle: Klucel (hydroxypropylcellulose) (HPC)): 97 % of control
- T/C (dose: 100.0 mg/kg/injection, schedule: Q01DX009 (ip), vehicle: Klucel (hydroxypropylcellulose) (HPC)): 103 % of control
- T/C (dose: 200.0 mg/kg/injection, schedule: Q01DX009 (ip), vehicle: Klucel (hydroxypropylcellulose) (HPC)): 97 % of control

SMILES: COc1ccc2c(c1OC(C)=O)-c1cc(O)cc3c1C(C2)N(C(=O)CN(CCCl)CCCl)CC3 (centres undefined)
- T/C (dose: 3.13 mg/kg/injection, schedule: Q04DX003 (ip), vehicle: DMSO): 116 % of control
- T/C (dose: 6.25 mg/kg/injection, schedule: Q04DX003 (ip), vehicle: DMSO): 123 % of control
- T/C (dose: 12.5 mg/kg/injection, schedule: Q04DX003 (ip), vehicle: DMSO): 174 % of control
- T/C (dose: 25.0 mg/kg/injection, schedule: Q04DX003 (ip), vehicle: DMSO): 168 % of control
- T/C (dose: 25.0 mg/kg/injection, schedule: Q04DX003 (ip), vehicle: distilled water + Tween-80): 154 % of control
- T/C (dose: 50.0 mg/kg/injection, schedule: Q04DX003 (ip), vehicle: DMSO): 169 % of control
- T/C (dose: 50.0 mg/kg/injection, schedule: Q04DX003 (ip), vehicle: saline): 87 % of control

SMILES: CC(C)CC1C(=O)N2CCCC2C2(O)OC(NC(=O)C3C=C4c5cccc6[nH]cc(c56)CC4N(C)C3)(C(C)C)C(=O)N12 (centres undefined)
- T/C (dose: 2.5 mg/kg/injection, schedule: Q01DX009 (ip), vehicle: Klucel (hydroxypropylcellulose) (HPC)): 91 % of control
- T/C (dose: 5.0 mg/kg/injection, schedule: Q01DX009 (ip), vehicle: Klucel (hydroxypropylcellulose) (HPC)): 90 % of control
- T/C (dose: 20.0 mg/kg/injection, schedule: Q01DX009 (ip), vehicle: Klucel (hydroxypropylcellulose) (HPC)): 99 % of control
- T/C (dose: 40.0 mg/kg/injection, schedule: Q01DX009 (ip), vehicle: Klucel (hydroxypropylcellulose) (HPC)): 101 % of control

SMILES: O=NNc1ccc(C(=O)O)cn1
- T/C (dose: 3.12 mg/kg/injection, schedule: Q01DX009 (ip), vehicle: saline): 108 % of control
- T/C (dose: 6.25 mg/kg/injection, schedule: Q01DX009 (ip), vehicle: saline): 100 % of control
- T/C (dose: 12.5 mg/kg/injection, schedule: Q01DX009 (ip), vehicle: saline): 106 % of control
- T/C (dose: 25.0 mg/kg/injection, schedule: Q01DX009 (ip), vehicle: saline): 97 % of control
- T/C [1]: 100 % of control
- T/C [2]: 91 % of control
- T/C [3]: 110 % of control

SMILES: NC1=C(C(=O)c2ccccc2)CCCC1
- T/C [1]: 106 % of control
- T/C [2]: 97 % of control
- T/C [3]: 97 % of control

SMILES: COP1(=O)CC(=O)C(C)(C)N1C (centres undefined)
- T/C [9]: 101 % of control
- T/C (dose: 100.0 mg/kg/injection, schedule: Q01DX005 (ip), vehicle: Klucel (hydroxypropylcellulose) (HPC)): 107 % of control
- T/C (dose: 200.0 mg/kg/injection, schedule: Q01DX005 (ip), vehicle: Klucel (hydroxypropylcellulose) (HPC)): 111 % of control
